The data set is described as follows: Solubility of processed ginseng extract (ginsenosides Rg3 and Rh2 by HPLC) in solvents and dissolution media. Type of data set: physicochemical. On the procedure:
Processed ginseng extracts were used as natural product extracts of the present invention, and the processed ginseng extracts were prepared by the methods disclosed in Korean Patent Nos. 1595426 and 1966117. Among these, a processed ginseng extract containing 13 wt% of ginsenoside Rg3 and 7 wt% of ginsenoside Rh2 was used.
To investigate the solubility of the processed ginseng extract of the present invention, isopropanol, ethanol, water, and a pH 1.2 buffer, a pH 4.0 buffer, and a pH 6.8 buffer, which are dissolution media disclosed in the Korean Pharmacopoeia, were used as solvents. After 500 mg of the processed ginseng extract was added to 2 g of each solvent, stirring was performed at 50 rpm and 37°C for 18 hours, thereby obtaining each sample. Thereafter, a filtrate obtained by filtration of each sample through a 0.45-µm polyvinylidene fluoride (PVDF) syringe filter was analyzed by high performance liquid chromatography (HPLC) to investigate the solubility of ginsenosides Rg3 and Rh2 contained in the processed ginseng extract. The results are shown in Table 1 below. • HPLC Conditions were as follows: • Column: C18, 1.8 µm, 2.1x50 mm • Column Temperature: 50°C • Detector: UV 203 nm • Flow rate: 0.6 ml/min • Amount of injection: 2 µl • Run time: About 14 min • Mobile phase: distilled water: acetonitrile =57:43 (v/v) TABLE 1

Where [1] appears, read: Ethanol, 500 mg processed ginseng extract in 2 g solvent, 50 rpm, 37°C, 18 hours.
Where [2] appears, read: Isopropanol, 500 mg processed ginseng extract in 2 g solvent, 50 rpm, 37°C, 18 hours.
[3] abbreviates: Water, 500 mg processed ginseng extract in 2 g solvent, 50 rpm, 37°C, 18 hours.
The mark [4] stands for this setting: pH 1.2 buffer, 500 mg processed ginseng extract in 2 g solvent, 50 rpm, 37°C, 18 hours.
Setting [5] is: pH 4.0 buffer, 500 mg processed ginseng extract in 2 g solvent, 50 rpm, 37°C, 18 hours.
Where [6] appears, read: pH 6.8 buffer, 500 mg processed ginseng extract in 2 g solvent, 50 rpm, 37°C, 18 hours.
The mark [7] stands for this setting: in water, a pH 1.2 buffer, or a pH 4.0 buffer.

`CC(C)=CCC[C@](C)(O)[C@H]1CC[C@]2(C)[C@@H]1[C@H](O)C[C@@H]1[C@@]3(C)CC[C@H](O[C@@H]4O[C@H](CO)[C@@H](O)[C@H](O)[C@H]4O)C(C)(C)[C@@H]3CC[C@]12C` [Ginsenoside Rh2 S-form, Ginsenoside Rh2] had a solubility under setting [1] of 3.96 mg/g; a solubility under setting [2] of 3.99 mg/g; a solubility under setting [3] of 0.10 mg/g; a solubility under setting [4] of 0.00 mg/g; a solubility under setting [5] of 0.13 mg/g; a solubility under setting [6] of 0.60 mg/g.
On to `CC(C)=CCC[C@](C)(O)[C@H]1CC[C@]2(C)[C@@H]1[C@H](O)C[C@@H]1[C@@]3(C)CC[C@H](O[C@@H]4O[C@H](CO)[C@@H](O)[C@H](O)[C@H]4O[C@@H]4O[C@H](CO)[C@@H](O)[C@H](O)[C@H]4O)C(C)(C)[C@@H]3CC[C@]12C` [Ginsenoside Rg3 S-form, Ginsenoside Rg3], for which the solubility is recorded as 7.52 mg/g under setting [1]; 7.43 mg/g under setting [2]; 0.21 mg/g under setting [3]; 0.01 mg/g under setting [4]; 0.28 mg/g under setting [5]; 1.23 mg/g under setting [6].
As for `CC(C)=CCC[C@](C)(O)[C@H]1CC[C@]2(C)[C@@H]1[C@H](O)C[C@@H]1[C@@]3(C)CC[C@H](O[C@@H]4O[C@H](CO)[C@@H](O)[C@H](O)[C@H]4O)C(C)(C)[C@@H]3CC[C@]12C` [Ginsenoside Rh2 R-form, Ginsenoside Rh2], the solubility is, setting by setting: under setting [1], 2.55 mg/g; under setting [2], 2.47 mg/g; under setting [3], 0.00 mg/g; under setting [4], 0.00 mg/g; under setting [5], 0.00 mg/g; under setting [6], 0.09 mg/g.
As to `CC(C)=CCC[C@](C)(O)[C@H]1CC[C@]2(C)[C@@H]1[C@H](O)C[C@@H]1[C@@]3(C)CC[C@H](O[C@@H]4O[C@H](CO)[C@@H](O)[C@H](O)[C@H]4O[C@@H]4O[C@H](CO)[C@@H](O)[C@H](O)[C@H]4O)C(C)(C)[C@@H]3CC[C@]12C` [Ginsenoside Rg3 R-form, Ginsenoside Rg3], the solubility runs as follows: under setting [1], 5.45 mg/g; under setting [2], 4.72 mg/g; under setting [3], 0.05 mg/g; under setting [4], 0.01 mg/g; under setting [5], 0.05 mg/g; under setting [6], 0.31 mg/g.
With `CC(C)=CCC[C@](C)(O)[C@H]1CC[C@]2(C)[C@@H]1[C@H](O)C[C@@H]1[C@@]3(C)CC[C@H](O[C@@H]4O[C@H](CO)[C@@H](O)[C@H](O)[C@H]4O)C(C)(C)[C@@H]3CC[C@]12C` [ginsenoside Rh2], under setting [7], the solubility entry is “less than 0.3 mg/g”.
Turning to `CC(C)=CCC[C@](C)(O)[C@H]1CC[C@]2(C)[C@@H]1[C@H](O)C[C@@H]1[C@@]3(C)CC[C@H](O[C@@H]4O[C@H](CO)[C@@H](O)[C@H](O)[C@H]4O[C@@H]4O[C@H](CO)[C@@H](O)[C@H](O)[C@H]4O)C(C)(C)[C@@H]3CC[C@]12C` [ginsenoside Rg3], the solubility entry under setting [7] is reported as “less than 0.3 mg/g”.
